Source: patent US20240043435A1, “TYK-2 INHIBITOR” (BEIGENE, LTD., priority 2020, published 2024)

Key:
[1] = system: JAK2, TYK2/p-STAT4 (Tyr693) activated by IL-12 in NK-92 cell line; assay: IL-12-JAK2, TYK2/p-STAT4 (Tyr693) inhibition IC50 cellular assay; assay type: cell-based; settings: NK92, Cellular assay; read-out: pSTAT4/IL-12 IC50
Procedure, shortened: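 p-STAT4 (Tyr693) in lysates was measured by AlphaLISA SureFire Ultra after a 30 min IL-12 challenge (40 ng/ml final) at 37° C. Overnight-starved, IL-2-free NK-92 cells had been pretreated 1 h with compound at 10000 to 0.61 nM (4-fold, 8 points). IC50 values came from four-parameter logistic fitting.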

pSTAT5/GM-CSF = pSTAT5/GM-CSF cellular assay (JAK2 selectivity); assay type: cell-based; settings: for Selectivity fold (TYK2/JAK2): pSTAT5/GM-CSF IC50 over pSTAT4/IL-12 IC50
[2] = target: T1, TYK2-JH2 (aa 575-869, in-house) protein (Homo sapiens, UniProt P29597); assay: TYK2-JH2 biochemical assay (HTRF probe displacement); assay type: binding; settings: Biochemical assay; read-out: TYK2-JH2 IC50
T1 construct: TYK2-JH2 (aa 575-869, in-house) protein; made in house
Procedure, shortened: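 HTRF probe-displacement format: compound dilutions (10 points, 5-fold, from 500 uM in DMSO at 500×) were combined with 0.2 nM TYK2-JH2 protein for 0.5 h at room temperature in HEPES pH 7.5 buffer with MgCl2, BSA, DTT and Brij-35. Percent inhibition came from the 615/665 nm fluorescence ratio, fitted to a four-parameter logistic for IC50.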

T1 sequence (P29597 575-869): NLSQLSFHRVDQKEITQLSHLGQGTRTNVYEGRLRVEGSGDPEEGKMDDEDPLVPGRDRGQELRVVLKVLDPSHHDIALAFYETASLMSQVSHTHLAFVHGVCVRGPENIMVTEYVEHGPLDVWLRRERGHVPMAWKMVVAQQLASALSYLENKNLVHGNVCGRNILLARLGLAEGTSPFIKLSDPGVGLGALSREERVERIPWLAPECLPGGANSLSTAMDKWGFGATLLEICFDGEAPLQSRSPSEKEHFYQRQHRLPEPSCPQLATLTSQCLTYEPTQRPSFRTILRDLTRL

IC50 [1]	IC50 (pSTAT5/GM-CSF)	IC50 [2]	Compound	Selectivity fold (TYK2/JAK2) (pSTAT5/GM-CSF)
1.76 nM	> 10000 nM	0.023 nM	CC(=O)Nc1cc(Nc2cc(OC(C)C)cc(S(C)(=O)=O)n2)c(-c2ccc3c(n2)OCCO3)cn1 [Example Q1, N-(5-(2,3-dihydro-[1,4]dioxino[2,3-b]pyridin-6-yl)-4-((4-isopropoxy-6-(methylsulfonyl)pyridine-2-yl)amino)pyridin-2-yl)acetamide]	>5681 fold
1.7 nM	> 10000 nM	0.021 nM	CC(=O)Nc1cc(Nc2cc(OC(C)C)cc(S(C)(=O)=O)n2)c(-c2ccc3c(n2)OCO3)cn1 [Example Q2, N-(5-([1,3]dioxolo[4,5-b]pyridin-5-yl)-4-((4-isopropoxy-6-(methylsulfonyl)pyridin-2-yl)amino)pyridin-2-yl)acetamide]	>5882 fold
1.14 nM	> 10000 nM	0.023 nM	CC(=O)Nc1cc(Nc2cc(C)cc(S(C)(=O)=O)n2)c(-c2ccc3c(n2)OCCO3)cn1 [Example Q3, N-(5-(2,3-dihydro-[1,4]dioxino[2,3-b]pyridin-6-yl)-4-((4-methyl-6-(methylsulfonyl)pyridin-2-yl)amino)pyridin-2-yl)acetamide]	>8771 fold
1.1 nM	> 10000 nM	0.037 nM	CC(=O)Nc1cc(Nc2cc(OC(C)C)cc(S(C)(=O)=O)n2)c(-c2cc3c(cn2)NCCO3)cn1 [Example Q4, N-(5-(3,4-dihydro-2H-pyrido[4,3-b][1,4]oxazin-7-yl)-4-((4-isopropoxy-6-(methylsulfonyl)pyridin-yl)amino)pyridin-2-yl)acetamide]	>9090 fold
0.45 nM	> 10000 nM	0.028 nM	CC(=O)Nc1cc(Nc2cc(OC(C)C)cc(S(C)(=O)=O)n2)c(-c2cc3n(n2)CCOC3)cn1 [Example Q6, N-(5-(6,7-dihydro-4H-pyrazolo[5,1-c][1,4]oxazin-2-yl)-4-((4-isopropoxy-6-(methylsulfonyl)pyridin-2-yl)amino)pyridin-2-yl)acetamide]	>22222 fold
0.91 nM	> 10000 nM	0.023 nM	CC(=O)Nc1cc(Nc2cc(C)cc(S(C)(=O)=O)n2)c(-c2cc3c(cn2)OCCO3)cn1 [Example Q18, N-(5-(2,3-dihydro-[1,4]dioxino[2,3-c]pyridin-7-yl)-4-((4-methyl-6-(methylsulfonyl)pyridin-2-yl)amino)pyridin-2-yl)acetamide]	>10989 fold
3.02 nM	> 10000 nM	0.025 nM	COCCOc1cc(Nc2cc(NC(C)=O)ncc2-c2cc3c(cn2)OCCO3)nc(S(C)(=O)=O)c1 [Example Q19, N-(5-(2,3-dihydro-[1,4]dioxino[2,3-c]pyridin-7-yl)-4-((4-(2-methoxyethoxy)-6-(methylsulfonyl)pyridin-2-yl)amino)pyridin-2-yl)acetamide]	>3311 fold
0.16 nM	1770 nM	0.022 nM	CC(=O)Nc1cc(Nc2cc(C)cc(S(C)(=O)=O)n2)c(-c2cc3n(n2)CCOC3)cn1 [Example Q20, N-(5-(6,7-dihydro-4H-pyrazolo[5,1-c][1,4]oxazin-2-yl)-4-((4-methyl-6-(methylsulfonyl)pyridin-2-yl)amino)pyridin-2-yl)acetamide]	11043 fold
0.411 nM	1570 nM	0.037 nM	CC(=O)Nc1cc(Nc2cc(C)cc(S(C)(=O)=O)n2)c(-c2ccc3c(n2)OCC(C)(C)O3)cn1 [Example Q21, N-(5-(2,2-dimethyl-2,3-dihydro-[1,4]dioxino[2,3-b]pyridin-6-yl)-4-((4-methyl-6-(methylsulfonyl)pyridin-2-yl)amino)pyridin-2-yl)acetamide]	3824 fold
0.584 nM	3960 nM	0.025 nM	CC(=O)Nc1cc(Nc2cc(N3CCOCC3)cc(S(C)(=O)=O)n2)c(-c2ccc3c(n2)OCC(C)(C)O3)cn1 [Example Q22, N-(5-(2,2-dimethyl-2,3-dihydro-[1,4]dioxino[2,3-b]pyridin-6-yl)-4-((6-(methylsulfonyl)-4-morpholinopyridin-2-yl)amino)pyridin-2-yl)acetamide]	6779 fold
0.605 nM	8100 nM	0.028 nM	CC(=O)Nc1cc(Nc2cc(C3CCOCC3)cc(S(C)(=O)=O)n2)c(-c2ccc3c(n2)OCC(C)(C)O3)cn1 [Example Q23, N-(5-(2,2-dimethyl-2,3-dihydro-[1,4]dioxino[2,3-b]pyridin-6-yl)-4-((6-(methylsulfonyl)-4-(tetrahydro-2H-pyran-4-yl)pyridin-2-yl)amino)pyridin-2-yl)acetamide]	13390 fold
0.559 nM	620 nM	0.033 nM	[2H]C([2H])([2H])Oc1cc(Nc2cc(NC(C)=O)ncc2-c2ccc3c(n2)OCC(C)(C)O3)nc(S(C)(=O)=O)c1 [Example Q24, N-(5-(2,2-dimethyl-2,3-dihydro-[1,4]dioxino[2,3-b]pyridin-6-yl)-4-((4-(methoxy-d3)-6-(methylsulfonyl)pyridin-2-yl)amino)pyridin-2-yl)acetamide]	1109 fold

Further lines, the compound ahead of its results:

Compound	IC50 [1]	IC50 (pSTAT5/GM-CSF)	IC50 [2]	Selectivity fold (TYK2/JAK2) (pSTAT5/GM-CSF)
CC(=O)Nc1cc(Nc2cc(OC(C)C)cc(S(C)(=O)=O)n2)c(-c2cc(C)n(C)n2)cn1 [Example N2, N-(5-(1,5-dimethyl-1H-pyrazol-3-yl)-4-((4-isopropoxy-6-(methylsulfonyl)pyridin-2-yl)amino)pyridin-2-yl)acetamide]	0.641 nM	> 10000 nM	0.021 nM	>15600 fold
CC(=O)Nc1cc(Nc2cc(OCCO)cc(S(C)(=O)=O)c2)c(-c2cc(C)n(C)n2)cn1 [Example N3, N-(5-(1,5-dimethyl-1H-pyrazol-3-yl)-4-((3-(2-hydroxyethoxy)-5-(methylsulfonyl)phenyl)amino)pyridin-2-yl)acetamide]	12.6 nM	> 10000 nM	0.033 nM	>791 fold
COc1cc(Nc2cc(NC(C)=O)ncc2-c2cc(C)n(C)n2)nc(S(C)(=O)=O)c1 [Example N4, N-(5-(1,5-dimethyl-1H-pyrazol-3-yl)-4-((4-methoxy-6-(methylsulfonyl)pyridin- -2-yl)amino)pyridin-2-yl)acetamide]	0.137 nM	> 10000 nM	0.029 nM	>72992 fold
COCCOc1cc(Nc2cc(NC(C)=O)ncc2-c2cc(C)n(C)n2)nc(S(C)(=O)=O)c1 [Example N5, N-(5-(1,5-dimethyl-1H-pyrazol-3-yl)-4-((4-(2-methoxyethoxy)-6-(methylsulfonyl)pyridin-2-yl)amino)pyridin-2-yl)acetamide]	0.212 nM	> 10000 nM	0.039 nM	>47169 fold
CO[C@H](C)COc1cc(Nc2cc(NC(C)=O)ncc2-c2cc(C)n(C)n2)nc(S(C)(=O)=O)c1 [Example N6, (R)-N-(5-(1,5-dimethyl-1H-pyrazol-3-yl)-4-((4-(2-methoxypropoxy)-6-(methylsulfonyl)pyridin-2-yl)amino)pyridin-2-yl)acetamide]	0.274 nM	> 10000 nM	0.039 nM	>36496 fold
CCOc1cc(Nc2cc(NC(C)=O)ncc2-c2cc(C)n(C)n2)nc(S(C)(=O)=O)c1 [Example N7, N-(5-(1,5-dimethyl-1H-pyrazol-3-yl)-4-((4-ethoxy-6-(methylsulfonyl)pyridin-2-yl)amino)pyridin-2-yl)acetamide]	1.43 nM	> 10000 nM	0.024 nM	>6993 fold
CC(=O)Nc1cc(Nc2cccc(S(C)(=O)=O)n2)c(-c2cc(N3CCOCC3)n(C)n2)cn1 [Example O1, N-(5-(1-methyl-5-morpholino-1H-pyrazol-3-yl)-4-((6-(methylsulfonyl)pyridin-2-yl)amino)pyridin-2-yl)acetamide]	0.414 nM	1210 nM	0.017 nM	2929 fold
COCCOc1cc(Nc2cc(NC(C)=O)ncc2-c2cc(N3CCOCC3)n(C)n2)nc(S(C)(=O)=O)c1 [Example O2, N-(4-((4-(2-methoxyethoxy)-6-(methylsulfonyl)pyridin-2-yl)amino)-5-(1-methyl-5-morpholino-1H-pyrazol-3-yl)pyridin-2-yl)acetamide]	1.12 nM	7010 nM	0.016 nM	6265 fold
CC(=O)Nc1cc(Nc2cc(OCC(C)O)cc(S(C)(=O)=O)n2)c(-c2cc(N3CCOCC3)n(C)n2)cn1 (stereo not drawn) [Example O3, N-(4-((4-(2-hydroxypropoxy)-6-(methylsulfonyl)pyridin-2-yl)amino)-5-(1-methyl-5-morpholino-1H-pyrazol-3-yl)pyridin-2-yl)acetamide]	6.86 nM	8300 nM	0.031 nM	2109 fold
